The text below walks through data of ChEMBL document CHEMBL5107971, “RpoN-Based stapled peptides with improved DNA binding suppress Pseudomonas aeruginosa virulence” (RSC Med Chem, 2022).

In general, MIC refers to the lowest concentration that inhibits growth of the organism. Broadly, the inhibition is the percentage by which the read-out fell short of the control. A word on the Kd: it is a measure of binding affinity in units of concentration.

The nature of series [1]: Toxicity in Galleria mellonella larvae assessed as survivability at 10 mg/kg administered intra-hemocoelicly and measured after 24 hrs. To be noted: in vivo, other. Format: organism-based.
Series [2] is described as follows: Hemolytic activity in human RBC at 100 uM measured after 1 hrs relative to control. The format is toxicity, cell-based, Erythrocyte. To be noted: red blood cells (erythrocytes), read-out: Activity.
For another series, the system named is Pseudomonas aeruginosa. Briefly: Antibacterial activity against Pseudomonas aeruginosa assessed as inhibition of cell growth upto 32 ug/ml incubated overnight by microtiter broth dilution assay. The format is functional. The note with it: dose <= 32 µg/ml. In general terms: Broth dilution looks for growth in wells or tubes with falling amounts of substance.

The subject of series [3] is DNA. Briefly: Inhibition of RpoN-mediated GlnAp2 transcription in Escherichia coli XL-1 Blue expressing GFP assessed as decrease in GFP levels at 10 uM incubated for 4 hrs under minimal nitrogen media by fluorescence based assay relative to control. Format: nucleic-acid assay.
Series [4] relates to DNA. The experiment in a line: Binding affinity to Escherichia coli GlnAp2 labelled with FITC assessed as dissociation constant incubated for 10 mins by fluorescence polarization assay. The format is nucleic-acid assay.
Another series deals with dsDNA. The experiment in a line: Binding affinity to FITC-labelled dsDNA (unknown origin) assessed as dissociation constant incubated for 10 mins by fluorescence polarization assay. The format is nucleic-acid assay. (Fluorescence polarisation rises when a labelled molecule tumbles more slowly, as on binding a larger partner.)

Structures are written as SMILES. Bridge positions count the residues as written; N and C are the ends. Square brackets hold non-standard residues; d marks the D form. Peptide text beside a SMILES is read from it. S5 = C=CCCC[C@](C)(N)C(=O)O; Nle = CCCC[C@H](N)C(=O)O; βAla = NCCC(=O)O

Regarding `CCCC[C@H](NC(=O)[C@H](CCC(=O)O)NC(=O)[C@H](CCCNC(=N)N)NC(=O)[C@H](Cc1ccc(O)cc1)NC(=O)[C@H](CCCCN)NC(=O)[C@H](C)NC(=O)[C@]1(C)CCC/C=C\CCC[C@](C)(NC(=O)[C@@H](NC(=O)[C@H](CCCCN)NC(=O)[C@H](Cc2ccccc2)NC(=O)CCNC(C)=O)C(C)C)C(=O)N[C@@H](CCCNC(=N)N)C(=O)N[C@@H](CCCNC(=N)N)C(=O)N[C@@H]([C@@H](C)O)C(=O)N1)C(=O)N[C@@H](CC(C)C)C(N)=O` (Ac-[βAla]FKV[S5]RRT[S5]AKYRE[Nle]L-NH2; staple (Z) 5-9), in series [1], the Activity entry is recorded as “Non-Toxic”. For the same molecule, the hemolysis at 1 h, 100 µM in series [2] amounted to 6.6%. The MIC in the series on Pseudomonas aeruginosa is above 32 µg/mL. In addition, in the series with DNA [3], the inhibition stood at 75%. Further, the Kd in the series on DNA [4] was determined as 1140 nM; at dsDNA it was 834 nM.
